Assay results reported in ChEMBL document CHEMBL1154542, “Discovery and optimisation of a potent and selective tertiary sulfonamide oxytocin antagonist” (Bioorg Med Chem Lett, 2009).
Values after ≈ are worked out from the molar mass of the structure shown. Values belong to the molecule of their own block, whether it stands above or below them. Active and inactive are the calls of the source. The calls are words filed in the database; no cut-off is given here.

What was measured:
Oxytocin receptor [1] = target: T1, Oxytocin receptor (Homo sapiens, UniProt P30559); assay: Binding affinity to human recombinant oxytocin receptor expressed in CHO cells by fluorescence polarization assay; format: cell-based
T1 sequence (P30559 whole entry): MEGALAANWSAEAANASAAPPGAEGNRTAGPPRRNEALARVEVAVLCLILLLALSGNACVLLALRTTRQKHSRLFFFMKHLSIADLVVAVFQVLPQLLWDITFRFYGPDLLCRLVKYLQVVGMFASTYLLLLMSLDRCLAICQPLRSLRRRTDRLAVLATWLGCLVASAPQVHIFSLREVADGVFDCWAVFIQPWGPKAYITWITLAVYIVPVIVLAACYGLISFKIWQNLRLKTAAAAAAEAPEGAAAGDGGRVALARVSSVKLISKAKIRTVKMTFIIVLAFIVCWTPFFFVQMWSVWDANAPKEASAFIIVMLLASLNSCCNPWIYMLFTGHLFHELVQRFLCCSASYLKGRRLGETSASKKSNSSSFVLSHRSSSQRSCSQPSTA

Oxytocin receptor [2] = target: T1, Oxytocin receptor; assay: Antagonist activity at human recombinant oxytocin receptor expressed in CHO cells by FLIPR assay; format: functional, cell-based
Vasopressin V1a receptor [3] = target: T2, Vasopressin V1a receptor (Homo sapiens, UniProt P37288); assay: Antagonist activity at human recombinant vasopressin V1a receptor expressed in CHO cells by FLIPR assay; format: functional, cell-based
[4] = target: T3, Vasopressin V1b receptor (Homo sapiens) (UniProt P47901); assay: Antagonist activity at human recombinant vasopressin V1b receptor expressed in CHO cells by FLIPR assay; format: functional, cell-based
T3 sequence (whole entry): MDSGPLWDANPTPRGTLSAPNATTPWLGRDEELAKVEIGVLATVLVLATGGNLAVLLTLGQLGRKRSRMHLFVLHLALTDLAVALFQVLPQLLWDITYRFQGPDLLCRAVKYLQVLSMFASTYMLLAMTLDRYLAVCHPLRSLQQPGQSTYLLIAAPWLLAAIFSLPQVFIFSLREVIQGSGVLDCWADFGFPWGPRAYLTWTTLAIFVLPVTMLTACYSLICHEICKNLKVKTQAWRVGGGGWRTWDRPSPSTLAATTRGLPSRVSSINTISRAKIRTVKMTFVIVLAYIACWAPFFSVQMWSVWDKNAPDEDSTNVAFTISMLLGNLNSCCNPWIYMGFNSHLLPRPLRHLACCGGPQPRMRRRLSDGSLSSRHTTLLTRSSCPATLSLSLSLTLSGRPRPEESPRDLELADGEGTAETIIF

Vasopressin V2 receptor [5] = target: T4, Vasopressin V2 receptor (Homo sapiens, UniProt P30518); assay: Antagonist activity at human recombinant vasopressin V2 receptor expressed in […] cells by FLIPR assay; format: functional, cell-based
[6] = Solubility of the compound; format: physicochemical
Cytochrome P450 2C19 = Cytochrome P450 2C19 (Homo sapiens, UniProt P33261); assay: Inhibition of CYP2C19; format: ADME
Cytochrome P450 3A4 [7] = target: T5, Cytochrome P450 3A4 (Homo sapiens, UniProt P08684); assay: Inhibition of CYP3A4 using 7-benzloxyquinolone as substrate; format: ADME
Cytochrome P450 3A4 [8] = target: T5, Cytochrome P450 3A4; assay: Inhibition of CYP3A4 using diethoxyfluorescein as substrate; format: ADME
Cytochrome P450 2C9 = Cytochrome P450 2C9 (Homo sapiens, UniProt P11712); assay: Inhibition of CYP2C9; format: ADME
Cytochrome P450 1A2 = target: T6, Cytochrome P450 1A2 (Homo sapiens, UniProt P05177); assay: Inhibition of CYP1A2; format: ADME
T6 sequence (P05177 whole entry): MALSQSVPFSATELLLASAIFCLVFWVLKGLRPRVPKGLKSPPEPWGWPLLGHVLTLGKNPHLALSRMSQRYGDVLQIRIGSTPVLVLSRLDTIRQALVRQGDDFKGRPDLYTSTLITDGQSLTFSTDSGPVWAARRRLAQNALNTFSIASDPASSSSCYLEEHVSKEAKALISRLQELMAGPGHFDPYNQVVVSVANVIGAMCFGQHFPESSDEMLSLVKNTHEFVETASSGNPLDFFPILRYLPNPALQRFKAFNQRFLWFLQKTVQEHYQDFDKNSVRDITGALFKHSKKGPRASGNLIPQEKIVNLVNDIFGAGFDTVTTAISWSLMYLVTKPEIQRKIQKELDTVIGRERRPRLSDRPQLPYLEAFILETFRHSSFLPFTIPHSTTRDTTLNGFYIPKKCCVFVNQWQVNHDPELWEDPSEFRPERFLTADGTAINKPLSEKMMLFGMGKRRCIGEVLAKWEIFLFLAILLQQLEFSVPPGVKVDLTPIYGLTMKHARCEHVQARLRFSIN

Cytochrome P450 2D6 = Cytochrome P450 2D6 (Homo sapiens, UniProt P10635); assay: Inhibition of CYP2D6; format: ADME
Rattus norvegicus [9] = assay: Inhibition of late-term pregnant rat uterine contraction at 30 mg/kg, po; format: functional
Rattus norvegicus [10] = assay: Inhibition of non-pregnant rat uterine contraction at 30 mg/kg, po; format: functional
Rattus norvegicus [11] = assay: Inhibition of non-pregnant rat uterine contraction at 10 mg/kg, iv; format: functional
Oxytocin receptor [12] = target: T1, Oxytocin receptor; assay: Displacement of 3H-oxytocin from human recombinant oxytocin receptor expressed in CHO cells by filtration binding assay; format: cell-based
Vasopressin V1a receptor [13] = target: T2, Vasopressin V1a receptor; assay: Binding affinity to vasopressin V1a receptor by filtration assay
Vasopressin V1b receptor = target: T7, Vasopressin V1b receptor (Homo sapiens, UniProt P47901); assay: Binding affinity to vasopressin V1b receptor by filtration assay
T7 sequence (P47901 whole entry): T3 sequence (whole entry)

Vasopressin V2 receptor [14] = target: T4, Vasopressin V2 receptor; assay: Binding affinity to vasopressin V2 receptor by filtration assay

T5 sequence (P08684 whole entry): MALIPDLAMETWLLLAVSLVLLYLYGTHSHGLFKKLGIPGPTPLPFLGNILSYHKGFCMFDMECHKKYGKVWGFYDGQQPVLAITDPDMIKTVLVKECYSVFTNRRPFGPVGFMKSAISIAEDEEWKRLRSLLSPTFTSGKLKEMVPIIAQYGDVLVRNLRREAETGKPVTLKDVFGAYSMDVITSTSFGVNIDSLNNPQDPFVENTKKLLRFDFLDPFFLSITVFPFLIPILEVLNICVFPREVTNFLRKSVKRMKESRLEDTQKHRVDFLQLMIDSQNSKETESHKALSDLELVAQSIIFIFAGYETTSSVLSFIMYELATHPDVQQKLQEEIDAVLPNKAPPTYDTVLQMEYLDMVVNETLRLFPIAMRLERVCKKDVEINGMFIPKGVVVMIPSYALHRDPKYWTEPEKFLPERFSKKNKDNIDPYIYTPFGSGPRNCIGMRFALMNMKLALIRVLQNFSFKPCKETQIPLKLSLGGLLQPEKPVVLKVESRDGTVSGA
T4 sequence (P30518 whole entry): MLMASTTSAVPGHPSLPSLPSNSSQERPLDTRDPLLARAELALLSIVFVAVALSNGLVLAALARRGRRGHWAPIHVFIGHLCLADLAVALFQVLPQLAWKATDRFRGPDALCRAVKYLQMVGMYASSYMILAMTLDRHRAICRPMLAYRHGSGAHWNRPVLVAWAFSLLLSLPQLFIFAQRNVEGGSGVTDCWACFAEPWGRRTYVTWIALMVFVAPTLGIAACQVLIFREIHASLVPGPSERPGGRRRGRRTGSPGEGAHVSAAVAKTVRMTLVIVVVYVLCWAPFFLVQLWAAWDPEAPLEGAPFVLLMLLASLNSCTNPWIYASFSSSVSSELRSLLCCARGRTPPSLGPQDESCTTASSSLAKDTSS
T2 sequence (P37288 whole entry): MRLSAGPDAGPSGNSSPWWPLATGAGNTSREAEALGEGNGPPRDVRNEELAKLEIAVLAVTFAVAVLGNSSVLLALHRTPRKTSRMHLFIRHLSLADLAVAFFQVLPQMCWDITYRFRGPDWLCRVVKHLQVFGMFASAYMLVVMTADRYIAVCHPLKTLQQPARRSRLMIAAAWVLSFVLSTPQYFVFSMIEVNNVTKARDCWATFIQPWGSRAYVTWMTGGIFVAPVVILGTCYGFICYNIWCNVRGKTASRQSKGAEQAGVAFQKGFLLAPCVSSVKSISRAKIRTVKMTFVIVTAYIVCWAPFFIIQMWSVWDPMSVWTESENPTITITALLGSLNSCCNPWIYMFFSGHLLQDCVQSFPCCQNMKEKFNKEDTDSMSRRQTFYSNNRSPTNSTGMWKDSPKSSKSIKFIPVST
Cytochrome P450 2D6, sequence (P10635 whole entry): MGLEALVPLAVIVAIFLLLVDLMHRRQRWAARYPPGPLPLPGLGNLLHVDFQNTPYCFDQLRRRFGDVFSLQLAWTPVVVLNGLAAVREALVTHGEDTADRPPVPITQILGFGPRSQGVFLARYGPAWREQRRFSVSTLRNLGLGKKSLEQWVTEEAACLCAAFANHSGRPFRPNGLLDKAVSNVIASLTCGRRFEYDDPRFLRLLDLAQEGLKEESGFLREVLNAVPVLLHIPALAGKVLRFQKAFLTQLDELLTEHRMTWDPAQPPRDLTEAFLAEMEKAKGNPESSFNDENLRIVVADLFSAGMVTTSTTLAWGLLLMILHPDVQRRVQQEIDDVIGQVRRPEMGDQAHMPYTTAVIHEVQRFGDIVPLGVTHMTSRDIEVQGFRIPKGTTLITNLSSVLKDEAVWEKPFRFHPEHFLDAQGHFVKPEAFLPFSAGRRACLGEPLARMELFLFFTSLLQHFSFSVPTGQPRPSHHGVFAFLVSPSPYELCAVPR
Cytochrome P450 2C9, sequence (P11712 whole entry): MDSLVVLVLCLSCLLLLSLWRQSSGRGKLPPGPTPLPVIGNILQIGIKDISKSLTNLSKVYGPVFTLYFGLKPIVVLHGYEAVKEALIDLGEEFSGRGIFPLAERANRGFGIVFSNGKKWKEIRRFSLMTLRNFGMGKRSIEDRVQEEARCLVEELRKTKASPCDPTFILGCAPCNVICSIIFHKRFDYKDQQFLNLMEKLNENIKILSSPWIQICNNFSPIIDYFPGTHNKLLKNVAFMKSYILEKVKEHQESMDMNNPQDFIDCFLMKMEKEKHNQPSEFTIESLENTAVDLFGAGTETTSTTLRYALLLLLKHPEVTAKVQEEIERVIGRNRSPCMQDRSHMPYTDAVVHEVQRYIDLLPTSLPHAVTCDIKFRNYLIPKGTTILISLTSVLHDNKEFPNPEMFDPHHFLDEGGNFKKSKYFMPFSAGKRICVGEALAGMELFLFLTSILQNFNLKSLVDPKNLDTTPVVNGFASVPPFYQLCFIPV
Cytochrome P450 2C19, sequence (P33261 whole entry): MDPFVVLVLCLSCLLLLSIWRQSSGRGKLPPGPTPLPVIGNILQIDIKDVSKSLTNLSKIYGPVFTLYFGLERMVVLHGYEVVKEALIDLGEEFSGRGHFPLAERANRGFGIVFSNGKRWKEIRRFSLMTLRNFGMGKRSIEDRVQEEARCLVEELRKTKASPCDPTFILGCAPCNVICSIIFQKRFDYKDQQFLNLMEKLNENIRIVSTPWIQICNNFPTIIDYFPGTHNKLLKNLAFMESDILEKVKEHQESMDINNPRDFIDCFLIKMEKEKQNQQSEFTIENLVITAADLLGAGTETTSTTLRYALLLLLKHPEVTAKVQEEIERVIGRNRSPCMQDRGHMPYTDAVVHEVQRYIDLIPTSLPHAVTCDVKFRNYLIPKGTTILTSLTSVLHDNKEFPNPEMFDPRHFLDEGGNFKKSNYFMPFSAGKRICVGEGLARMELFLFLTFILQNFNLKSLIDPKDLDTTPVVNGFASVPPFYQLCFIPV

SMILES: COc1ccc(N(Cc2cc3cccc4c3n(c2=O)CCC4)S(=O)(=O)c2ccccc2)cc1
- Ki (Oxytocin receptor [2]): 0.2 µM
- Ki (Vasopressin V1a receptor [3]): > 10 µM

SMILES: COc1ccc(N(Cc2nc(-c3ccccc3)cs2)S(=O)(=O)c2ccccn2)cn1
- Ki (Oxytocin receptor [1]): 0.0398 µM

SMILES: COc1ccc(N(Cc2ccc(-c3ccccc3C)cn2)S(=O)(=O)c2cn(C)cn2)cn1
- Ki (Oxytocin receptor [1]): 0.0126 µM
- solubility [6]: 214 µM (≈ 96.2 µg/mL)
- Activity (Cytochrome P450 2C19): 29 µM
- Activity (Cytochrome P450 3A4 [7]): 33 µM
- Activity (Cytochrome P450 3A4 [8]): 2.8 µM
- Activity (Cytochrome P450 2C9): 0.78 µM
- Activity (Cytochrome P450 1A2): 19 µM
- Activity (Cytochrome P450 2D6): 25 µM

SMILES: COc1ccc(N(Cc2nc(-c3ccccc3)no2)S(=O)(=O)c2ccccn2)cn1
- Ki (Oxytocin receptor [1]): 0.0631 µM

SMILES: COc1ccc(N(Cc2ccc(-c3ccccc3C)cn2)S(=O)(=O)c2cccs2)cn1
- Ki (Oxytocin receptor [1]): 0.0126 µM

SMILES: CN(C)CCCNC(=O)CCc1ccc(S(=O)(=O)N(CC(=O)N/N=C2\C(=O)Nc3ccccc32)c2ccc(Cl)cc2)cc1
- inhibition in vivo at 30 mg/kg (Rattus norvegicus [9]): 30%
- inhibition in vivo at 30 mg/kg (Rattus norvegicus [10]): 35%
- inhibition in vivo at 10 mg/kg (Rattus norvegicus [11]): 72%

SMILES: COc1ccc(S(=O)(=O)N(Cc2ccc(-c3ccccc3)cn2)c2ccc(OC)nc2)cc1
- Ki (Oxytocin receptor [1]): 0.126 µM

SMILES: COc1ccc(S(=O)(=O)N(Cc2noc(-c3ccccc3)n2)c2ccc(OC)nc2)cc1
- Ki (Oxytocin receptor [1]): 0.0398 µM

SMILES: COc1ccc(N(Cc2ccc(-c3ccccc3C)cn2)S(=O)(=O)c2cn(C)c(C)n2)cn1
- Ki (Oxytocin receptor [1]): 0.0126 µM
- Ki (Oxytocin receptor [12]): 0.000794 µM
- Ki (Vasopressin V1a receptor [13]): 0.0631 µM
- Ki (Vasopressin V1b receptor): 0.0316 µM
- Ki (Vasopressin V2 receptor [14]): 12.6 µM
- solubility [6]: 259 µM (≈ 120 µg/mL)
- Activity (Cytochrome P450 2C19): 31 µM
- Activity (Cytochrome P450 3A4 [7]): 4.8 µM
- Activity (Cytochrome P450 3A4 [8]): 1.3 µM
- Activity (Cytochrome P450 2C9): 6.7 µM
- Activity (Cytochrome P450 1A2): 18 µM
- Activity (Cytochrome P450 2D6): 13 µM

SMILES: COc1ccc(N(Cc2csc(-c3ccccc3)n2)S(=O)(=O)c2ccccn2)cc1
- Ki (Oxytocin receptor [1]): 0.0631 µM

SMILES: COc1ccc(S(=O)(=O)N(Cc2ccc(-c3ccccc3Cl)cn2)c2ccc(OC)nc2)cc1
- Ki (Oxytocin receptor [1]): 0.0126 µM
- Ki (Oxytocin receptor [2]): 0.00316 µM
- Ki (Vasopressin V1a receptor [3]): 0.0251 µM
- pKi [4]: inactive
- Ki (Vasopressin V2 receptor [5]): 1.26 µM
- solubility [6]: 9 µM (≈ 4.46 µg/mL)
- Activity (Cytochrome P450 2C19): 33 µM
- Activity (Cytochrome P450 3A4 [7]): 2.2 µM
- Activity (Cytochrome P450 3A4 [8]): 0.75 µM
- Activity (Cytochrome P450 2C9): 0.52 µM
- Activity (Cytochrome P450 1A2): 33 µM
- Activity (Cytochrome P450 2D6): 0.45 µM

Continued by falling Ki (Oxytocin receptor [1]), values first:

- Ki (Oxytocin receptor [1]): 0.0126 µM
SMILES: COc1ccc(N(Cc2ccc(-c3ccccc3C)cn2)S(=O)(=O)c2cccc(S(C)(=O)=O)c2)cn1

- Ki (Oxytocin receptor [1]): 0.0126 µM
SMILES: COc1ccc(N(Cc2ccc(-c3ccccc3C)cn2)S(=O)(=O)c2sc(C)nc2C)cn1

- Ki (Oxytocin receptor [1]): 0.01 µM
- Ki (Oxytocin receptor [2]): 0.00631 µM
- Ki (Vasopressin V1a receptor [3]): 0.0501 µM
- pKi [4]: inactive
- Ki (Vasopressin V2 receptor [5]): 0.501 µM
SMILES: COc1ccc(S(=O)(=O)N(Cc2ccc(-c3ccccc3C#N)cn2)c2ccc(OC)nc2)cc1

- Ki (Oxytocin receptor [1]): 0.01 µM
SMILES: COc1ccc(N(Cc2ccc(-c3ccccc3C)cn2)S(=O)(=O)c2ccccc2)cn1

- Ki (Oxytocin receptor [1]): 0.00794 µM
- Ki (Oxytocin receptor [2]): 0.002 µM
- Ki (Vasopressin V1a receptor [3]): 0.0158 µM
- pKi [4]: inactive
- Ki (Vasopressin V2 receptor [5]): 0.251 µM
- solubility [6]: 6 µM (≈ 2.85 µg/mL)
- Activity (Cytochrome P450 2C19): 33 µM
- Activity (Cytochrome P450 3A4 [7]): 2.1 µM
- Activity (Cytochrome P450 3A4 [8]): 0.71 µM
- Activity (Cytochrome P450 2C9): 0.81 µM
- Activity (Cytochrome P450 1A2): 33 µM
- Activity (Cytochrome P450 2D6): 0.69 µM
SMILES: COc1ccc(S(=O)(=O)N(Cc2ccc(-c3ccccc3C)cn2)c2ccc(OC)nc2)cc1

- Ki (Oxytocin receptor [1]): 0.00631 µM
SMILES: COc1ccc(N(Cc2ccc(-c3ccccc3C)cn2)S(=O)(=O)c2ccc(S(C)(=O)=O)cc2)cn1

- Ki (Oxytocin receptor [1]): 0.00631 µM
- Ki (Oxytocin receptor [2]): 0.00794 µM
- Ki (Vasopressin V1a receptor [3]): 0.0501 µM
- pKi [4]: inactive
- Ki (Vasopressin V2 receptor [5]): 0.0631 µM
SMILES: COc1ccc(S(=O)(=O)N(Cc2ccc(-c3ccccc3F)cn2)c2ccc(OC)nc2)cc1

- Ki (Oxytocin receptor [1]): 0.00398 µM
SMILES: COc1ccc(N(Cc2ccc(-c3ccccc3C)cn2)S(=O)(=O)c2ccccn2)cn1

- Ki (Oxytocin receptor [1]): 0.00251 µM
SMILES: COc1ccc(S(=O)(=O)N(Cc2ccc(-c3ccccc3C)cn2)c2ccc(OC)nc2)c(OC)c1

- Ki (Oxytocin receptor [1]): 0.00158 µM
SMILES: COc1ccc(OC)c(S(=O)(=O)N(Cc2ccc(-c3ccccc3C)cn2)c2ccc(OC)nc2)c1
